The conditions of series [1]: melt phase, 78 and 90° C. for 24, 72 or 137 hrs. On the procedure:
Samples intended to degrade under en inert atmosphere were flushed with nitrogen for 5 minutes before closing with a stepper.
The samples were introduced into a pre-heated oven and held at a constant temperature of 78 and 90° C. for 24, 72 or 137 hrs. After completion of the treatment the samples were refrigerated and analyzed.

For series [2] the following is noted: in vivo; cited from earlier work.

Take `C#CCN[C@@H]1CCc2ccccc21` [rasagiline, R(+)-N-propargyl-1-aminoindan]: the “formation of R(+)-N-methyl-PAI (summary of Table 1)” value in series [1] was “no R(+)-N-methyl-PAI was formed”. The absolute bioavailability entry in series [2] was “about 36%”.

The values are drawn from patent US9339469B2, “R(+)-N-methyl-propargyl-aminoindan” (Teva Pharmaceutical Industries, Ltd., priority 2011, dated 2016).
